# In article PMC4779142, “The fully synthetic MAG-Tn3 therapeutic vaccine containing the tetanus toxoid-derived TT830-844 universal epitope provides anti-tumor immunity” (Cancer Immunology, Immunotherapy : CII, 2016):
# Tested on: CD4+ T cells from C3H/HeN lymph nodes
# Format: cell-based, mouse
# Details: n = 5, sc 50 μg peptide with CFA, day 11, 50 μg/mL peptide in vitro
sequence,measurement,value
"RNTDGSTDYGILQINSR [HEL, H-2k-restricted HEL45-61 peptide derived from hen egg lysozyme ([…])]","TNF-α, IL-2 and IFN-γ production by CD4+ T cells on in vitro stimulation with the peptide","able to produce TNF-α, IL-2 and IFN-γ"
